How the values were obtained:
CYP2B6 = target: T1, CYP2B6 (Homo sapiens, UniProt P20813); test: Inhibition of hepatic CYP enzymes: CYP2B6; format: biochemical; conditions: read-out: CYP2B6 IC50 (mean ± SD)
T1 construct: purchased Becton Dickinson GmbH (Heidelberg)
T1 sequence (P20813 1-491): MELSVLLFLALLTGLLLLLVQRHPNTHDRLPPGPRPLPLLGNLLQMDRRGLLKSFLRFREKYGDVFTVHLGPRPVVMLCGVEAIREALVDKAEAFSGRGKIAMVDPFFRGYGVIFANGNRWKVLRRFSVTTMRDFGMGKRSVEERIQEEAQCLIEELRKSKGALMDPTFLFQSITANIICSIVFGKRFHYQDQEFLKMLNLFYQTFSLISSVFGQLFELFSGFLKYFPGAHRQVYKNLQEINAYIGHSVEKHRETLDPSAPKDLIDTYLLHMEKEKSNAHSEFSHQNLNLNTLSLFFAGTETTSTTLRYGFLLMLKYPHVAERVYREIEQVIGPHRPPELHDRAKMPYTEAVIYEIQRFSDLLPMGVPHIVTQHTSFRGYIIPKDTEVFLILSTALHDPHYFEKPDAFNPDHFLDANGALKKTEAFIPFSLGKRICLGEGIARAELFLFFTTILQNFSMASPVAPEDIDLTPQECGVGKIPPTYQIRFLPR
Text: (§1) Drug interactions (inhibition of hepatic CYP enzymes): The inhibition of six human hepatic cytochrome P450 enzymes by selected compounds was examined by means of the kit supplied by Becton Dickinson GmbH (Heidelberg).

in vitro = conditions: rat, microsomes, pH 7.4
Description: The reaction is started by adding 20 μl of the compound to be tested in 20% AcCN to the microsome/buffer mixture preincubated at 37° C. After 0, 15, 30 and 60 minutes, 200 μl of sample solution is withdrawn and subjected to AcCN precipitation. The isolation of the compounds is effected by adding 200 μl of AcCN that contains the internal standard (1 μM) to 200 μl of sample solution and calibration standard. After shaking for 10 s and centrifugation at 4000 g, an aliquot of the supernatant is subjected to LC-MS/MS. Two controls are included: a positive control with 7-ethoxycoumarin as a reference to verify the microsomal enzyme activity, and a negative control in which microsomes are used that were heated for 25 minutes without a regenerating system, in order to ensure that the loss of substance is actually due to metabolization.
The amount of compound in a sample is expressed as the percent fraction of the compound remaining as compared to time t=0 (100%). The percent fraction is plotted versus time.

CYP2C19 = target: T2, CYP2C19 (Homo sapiens, UniProt P33261); test: Inhibition of hepatic CYP enzymes: CYP2C19; format: biochemical; conditions: read-out: CYP2C19 IC50 (mean ± SD)
T2 construct: purchased Becton Dickinson GmbH (Heidelberg)
T2 sequence (P33261 whole entry): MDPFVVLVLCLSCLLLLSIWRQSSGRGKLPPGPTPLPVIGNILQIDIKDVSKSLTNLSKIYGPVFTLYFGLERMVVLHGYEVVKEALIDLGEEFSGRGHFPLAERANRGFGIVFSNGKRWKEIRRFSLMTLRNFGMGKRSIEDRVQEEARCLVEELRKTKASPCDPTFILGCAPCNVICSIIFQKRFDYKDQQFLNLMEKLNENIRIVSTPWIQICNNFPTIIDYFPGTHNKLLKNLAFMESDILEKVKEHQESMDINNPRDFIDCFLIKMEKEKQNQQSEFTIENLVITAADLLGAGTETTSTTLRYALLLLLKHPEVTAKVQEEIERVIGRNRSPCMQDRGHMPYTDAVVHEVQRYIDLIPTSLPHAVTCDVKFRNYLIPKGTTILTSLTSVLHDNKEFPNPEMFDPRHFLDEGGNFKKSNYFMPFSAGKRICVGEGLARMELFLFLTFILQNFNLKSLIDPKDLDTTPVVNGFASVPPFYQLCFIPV
Text: as §1

CYP1A2 = target: T3, CYP1A2 (Homo sapiens, UniProt P05177); test: Inhibition of hepatic CYP enzymes: CYP1A2; format: biochemical; conditions: read-out: CYP1A2 IC50 (mean ± SD)
T3 construct: purchased Becton Dickinson GmbH (Heidelberg)
T3 sequence (P05177 1-516): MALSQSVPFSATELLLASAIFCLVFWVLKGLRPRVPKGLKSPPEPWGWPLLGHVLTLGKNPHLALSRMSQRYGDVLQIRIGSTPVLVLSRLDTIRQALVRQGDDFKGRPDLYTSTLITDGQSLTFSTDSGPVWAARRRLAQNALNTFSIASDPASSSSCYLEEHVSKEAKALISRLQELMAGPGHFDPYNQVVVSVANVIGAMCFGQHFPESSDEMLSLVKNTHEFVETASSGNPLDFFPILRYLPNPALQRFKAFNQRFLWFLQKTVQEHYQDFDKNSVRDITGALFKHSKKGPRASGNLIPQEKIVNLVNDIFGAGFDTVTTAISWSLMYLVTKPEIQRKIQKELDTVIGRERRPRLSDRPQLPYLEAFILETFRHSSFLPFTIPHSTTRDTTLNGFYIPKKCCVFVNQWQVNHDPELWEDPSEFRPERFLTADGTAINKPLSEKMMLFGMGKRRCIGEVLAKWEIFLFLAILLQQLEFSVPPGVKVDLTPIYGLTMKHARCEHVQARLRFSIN
Text: as §1

CaCo2 transport assay = format: in vitro ADME; conditions: human, Caco-2; 50 μM in donor compartment; read-out: Papp [cm/sec ± rel. SD]
Description: Performance of selected compounds in a CaCo2 assay: Caco-2 cell culture and transport experiments were performed according to Yee (Yee, S., Pharm. Res., 14(6): 763-766 (1997)), but slight modifications were introduced. The cultivation times were reduced from 21 to 10 days by increasing the sowing density from 6.3·10^4 to 1.65·10^5 cells per well. […] The initial concentration of the compounds in the donor compartment was 50 μM (in buffer with 1% ethanol or DMSO). Samples were taken from the acceptor side after 60, 120 and 180 min and from the donor side after 0 and 180 min. For glycoprotein P (P-gp) studies, bidirectional experiments were performed. The absorptive and secretory permeabilities (Papp (a-b) and Papp (b-a)) were determined. Thus, erythromycin was used as a substrate, and verapamil was used as an inhibitor of P-gp. Each experiment was performed in triplicate. The integrity of the monolayer was determined by means of TEER (transepithelial electric resistance) and the permeability for each assay was determined using Lucifer Yellow. All samples of the CaCo-2 transport experiments were analyzed by means of LC/MS/MS after dilution with buffer (1:1 with 2% acetic acid). The apparent permeability coefficient (Papp) was calculated by means of the formula given below, where dQ/dt represents the recovery rate of the mass in the acceptor compartment, A represents the surface area of the transwell membrane, and c0 represents the initial concentration in the donor compartment.

CYP3A4 = target: T4, CYP3A4 (Homo sapiens, UniProt P08684); test: Inhibition of hepatic CYP enzymes: CYP3A4; format: biochemical; conditions: read-out: CYP3A4 IC50 (mean ± SD)
T4 construct: purchased Becton Dickinson GmbH (Heidelberg)
T4 sequence (P08684 whole entry): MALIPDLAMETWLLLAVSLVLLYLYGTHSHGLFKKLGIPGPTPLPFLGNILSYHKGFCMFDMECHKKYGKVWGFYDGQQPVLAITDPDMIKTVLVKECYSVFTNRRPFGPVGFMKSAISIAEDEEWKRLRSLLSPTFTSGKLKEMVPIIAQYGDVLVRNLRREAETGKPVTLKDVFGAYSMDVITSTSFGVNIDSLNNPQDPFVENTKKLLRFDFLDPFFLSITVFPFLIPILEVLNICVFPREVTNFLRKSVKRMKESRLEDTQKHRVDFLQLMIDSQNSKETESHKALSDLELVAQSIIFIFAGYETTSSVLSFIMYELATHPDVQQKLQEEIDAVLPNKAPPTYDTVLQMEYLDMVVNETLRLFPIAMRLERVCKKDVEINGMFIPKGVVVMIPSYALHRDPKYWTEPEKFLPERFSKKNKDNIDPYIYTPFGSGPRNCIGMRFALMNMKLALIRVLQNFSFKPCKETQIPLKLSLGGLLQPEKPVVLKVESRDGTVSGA
Text: as §1

| IC50 (CYP2B6) | half-life (in vitro) | IC50 (CYP2C19) | IC50 (CYP1A2) | Papp at 180 min, 50 μM (CaCo2 transport assay) | IC50 (CYP3A4) | Half life (in vitro) | Compound |
| --- | --- | --- | --- | --- | --- | --- | --- |
| 18.8 ± 2.05 µM | 10.6 min | 3.37 ± 0.12 µM | 5.35 ± 0.24 µM | 11.5 ×10⁻⁶ cm/s | 7.36 ± 0.49 µM |  | Oc1ccc(-c2ccsc2-c2cccc(O)c2)cc1 [Compound 28, 3-[3-(4-Hydroxyphenyl)-2-thienyl]phenol] |
| 7.68 ± 0.92 µM |  | 4.2 ± 0.29 µM | 17.2 ± 1.16 µM |  | 2.13 ± 0.13 µM | 22.7 min | Oc1cccc(-c2ccc(-c3cccc(O)c3)cc2)c1 [Compound 42, [1,1′,4′,1″]Terphenyl-3,3′-diol] |

From patent US20110046147A1, “17BETA-HYDROXYSTEROID DEHYDROGENASE TYPE 1 INHIBITORS FOR THE TREATMENT OF HORMONE-RELATED DISEASES” (UNIVERSITAT DES SAARLANDES, priority 2007, published 2011)
